The values that follow come from paper PMC9151520 (Archives of Toxicology, 2022).

Like-named read-outs stand apart in the source and are kept apart here.

Experiment [1] relates to p53 signaling (p53RE-bla HCT-116 cells). In words: cells. The class given is cell-based. The note with it: for EC50 / Emax: Homo sapiens.
Experiment [2] shares this test system.
The test system is the same in experiment [3]. This is another data set of the same source.
Where [4] appears, read: HCT-116, read-out: p53 activation EC50, primary screening.
Where [5] appears, read: HCT-116, read-out: p53 activation efficacy, primary screening.
[6] abbreviates: HCT-116, read-out: EC50, p53 activation, cherry pick confirmation.
The mark [7] stands for this setting: HCT-116, read-out: EC50, p53 activation, primary screening.
Where [8] appears, read: HCT-116, read-out: Efficacy, p53 activation, cherry pick confirmation.
Setting [9] is: HCT-116, read-out: Efficacy, p53 activation, primary screening.

In the case of `O=C(NC(=O)c1c(F)cccc1F)Nc1cc(Cl)c(Oc2ncc(C(F)(F)F)cc2Cl)c(Cl)c1` [Chlorfluazuron], in experiment [1], the “p53 activation EC50, cherry pick confirmation” value is “inactive” and the “p53 activation efficacy, cherry pick confirmation” value was “inactive”. For the same molecule, the EC50 (as a rule, the concentration giving half of the maximal effect) in experiment [1] (setting [4]) was 31.4 µM. For the same molecule, the Emax in experiment [1] (setting [5]) was 80.6%. Also, in experiment [2], the “p53 activation EC50, cherry pick confirmation” value was “inactive”; the “p53 activation EC50, primary screening” value was “inactive”; the “p53 activation efficacy, cherry pick confirmation” value was “inactive”; the “p53 activation efficacy, primary screening” value is “inactive”. For the same molecule, in experiment [3], the “p53 activation EC50, cherry pick confirmation” value is “inactive”; the “p53 activation EC50, primary screening” value is “inactive”; the “p53 activation efficacy, cherry pick confirmation” value was “inactive”; the “p53 activation efficacy, primary screening” value was “inactive”. Moreover, in the experiment on p53RE-bla HCT-116 cells, the “Viability EC50, cherry pick confirmation” value was “inactive”; the “Viability EC50, primary screening” value is “inactive”; the “Viability efficacy, cherry pick confirmation” value is “inactive”; the “Viability efficacy, primary screening” value was “inactive”.

Consider `O=c1cc(-c2ccccc2)oc2cc(O)cc(O)c12` [Chrysin], for which, in experiment [1] (setting [6]), the EC50 was 45 µM. In experiment [1] (setting [7]), the EC50 was found to be 49.5 µM. The Emax in experiment [1] (setting [8]) was 43.6%. Also, the Emax in experiment [1] (setting [9]) came to 38.6%. Also, in experiment [2], the “EC50, p53 activation, cherry pick confirmation” value is “inactive”; the “EC50, p53 activation, primary screening” value is “inactive”; the “Efficacy, p53 activation, cherry pick confirmation” value was “inactive”; the “Efficacy, p53 activation, primary screening” value was “inactive”. In experiment [3], the “EC50, p53 activation, cherry pick confirmation” value is “inactive”; the “EC50, p53 activation, primary screening” value is “inactive”; the “Efficacy, p53 activation, cherry pick confirmation” value was “inactive”; the “Efficacy, p53 activation, primary screening” value was “inactive”. For the same molecule, in the experiment with p53RE-bla HCT-116 cells, the “EC50, viability, cherry pick confirmation” value is “inactive”; the “EC50, viability, primary screening” value was “inactive”; the “Efficacy, viability, cherry pick confirmation” value was “inactive”; the “Efficacy, viability, primary screening” value was “inactive”.

`Cc1cc(C2CCCCC2)n(O)c(=O)c1` [Ciclopirox olamine]: the EC50 in experiment [1] (setting [6]) turned out to be 26.5 µM. For the same molecule, the half-maximal effective concentration (EC50) in experiment [1] (setting [7]) was 16.3 µM. The Emax in experiment [1] (setting [8]) turned out to be 57.2%. The Emax in experiment [1] (setting [9]) turned out to be 26%. Also, in experiment [2], the “EC50, p53 activation, cherry pick confirmation” value was “inactive”; the “EC50, p53 activation, primary screening” value is “inactive”; the “Efficacy, p53 activation, cherry pick confirmation” value was “inactive”; the “Efficacy, p53 activation, primary screening” value is “inactive”. Also, in experiment [3], the “EC50, p53 activation, cherry pick confirmation” value is “inactive”; the “EC50, p53 activation, primary screening” value is “inactive”; the “Efficacy, p53 activation, cherry pick confirmation” value was “inactive”; the “Efficacy, p53 activation, primary screening” value was “inactive”. For the same molecule, in the experiment with p53RE-bla HCT-116 cells, the “EC50, viability, cherry pick confirmation” value was “inactive”; the “EC50, viability, primary screening” value is “inactive”; the “Efficacy, viability, cherry pick confirmation” value was “inactive”; the “Efficacy, viability, primary screening” value was “inactive”.

In the case of `Nc1nc(Cl)nc2c1ncn2[C@@H]1O[C@H](CO)[C@@H](O)[C@@H]1F` [Clofarabine], the EC50 in experiment [1] (HCT-116, read-out: p53 activation EC50, cherry pick confirmation) turned out to be 0.335 µM. Moreover, the EC50 in experiment [1] (setting [4]) was found to be 0.138 µM. Also, the Emax in experiment [1] (HCT-116, read-out: p53 activation efficacy, cherry pick confirmation) was 84.9%. Further, the Emax in experiment [1] (setting [5]) was found to be 93.3%. In experiment [2], the “p53 activation EC50, cherry pick confirmation” value was “inactive”; the “p53 activation EC50, primary screening” value is “inactive”; the “p53 activation efficacy, cherry pick confirmation” value is “inactive”; the “p53 activation efficacy, primary screening” value is “inactive”. Besides, in experiment [3], the “p53 activation EC50, cherry pick confirmation” value was “inactive”; the “p53 activation EC50, primary screening” value is “inactive”; the “p53 activation efficacy, cherry pick confirmation” value was “inactive”; the “p53 activation efficacy, primary screening” value is “inactive”. In addition, in the experiment on p53RE-bla HCT-116 cells, the “Viability EC50, cherry pick confirmation” value was “inactive”; the “Viability EC50, primary screening” value was “inactive”; the “Viability efficacy, cherry pick confirmation” value is “inactive”; the “Viability efficacy, primary screening” value is “inactive”.
